Test results: ChEMBL document CHEMBL1134101, “The cyclohexene ring as bioisostere of a furanose ring: synthesis and antiviral activity of cyclohexenyl nucleosides” (Bioorg Med Chem Lett, 2001)
≈ marks a conversion by molar mass, not a printed value.

Tests used:
Cytomegalovirus [1] = assay: Effective concentration required against HCMV AD169 for antiviral activity; format: functional, organism-based, Human betaherpesvirus 5
Cytomegalovirus [2] = assay: Tested for antiviral activity against HCMV (AD169); format: functional, organism-based, Human betaherpesvirus 5
Human alphaherpesvirus 1 [3] = assay: Tested for antiviral activity against HSV-1 (KOS); format: functional, organism-based
Human alphaherpesvirus 2 = assay: Tested for antiviral activity against HSV-2 (G); format: functional, organism-based
Human alphaherpesvirus 3 [4] = assay: Tested for antiviral activity against VZV ([…]); format: functional, organism-based
Human alphaherpesvirus 3 [5] = assay: Tested for antiviral activity against VZV (YS); format: functional, organism-based
Hepatitis B virus = assay: Tested for antiviral activity against HBV (Hep AD79); format: functional, organism-based
Human alphaherpesvirus 1 [6] = assay: Tested for antiviral activity against HSV-1 (TK-KOS); format: functional, organism-based
Cytomegalovirus [7] = assay: Effective concentration required against HCMV strain for antiviral activity; format: functional, organism-based; conditions: Human betaherpesvirus 5
[8] = Human alphaherpesvirus 1, read-out: IC50
[9] = Human alphaherpesvirus 2, read-out: IC50
[10] = Hepatitis B virus, read-out: IC50
[11] = Human betaherpesvirus 5, read-out: EC50

| EC50 (Cytomegalovirus [1]) [µg/mL] | IC50 (Cytomegalovirus [2]) [µg/mL] | IC50 (Human alphaherpesvirus 1 [3]) [µg/mL] | IC50 (Human alphaherpesvirus 2) [µg/mL] | IC50 (Human alphaherpesvirus 3 [4]) [µg/mL] | IC50 (Human alphaherpesvirus 3 [5]) [µg/mL] | IC50 (Hepatitis B virus) [µg/mL] | IC50 (Human alphaherpesvirus 1 [6]) [µg/mL] | IC50 (Human alphaherpesvirus 1 [3]; [8]) [µg/mL] | IC50 (Human alphaherpesvirus 2; [9]) [µg/mL] | IC50 (Hepatitis B virus; [10]) [µg/mL] | EC50 (Cytomegalovirus [1]; [11]) [µg/mL] | EC50 (Cytomegalovirus [7]) [µg/mL] | IC50 (Human alphaherpesvirus 1 [6]; [8]) [µg/mL] | IC50 (Cytomegalovirus [2]; Human betaherpesvirus 5, read-out: IC50) [µg/mL] | SMILES |
| --- | --- | --- | --- | --- | --- | --- | --- | --- | --- | --- | --- | --- | --- | --- | --- |
| 0.47 (≈ 1.7 µM) | 0.6 (≈ 2.16 µM) | 0.002 (≈ 0.00721 µM) | 0.05 (≈ 0.18 µM) | 2.1 (≈ 7.57 µM) | 0.49 (≈ 1.77 µM) | 3 (≈ 10.8 µM) | 0.38 (≈ 1.37 µM) |  |  |  |  |  |  |  | Nc1nc(O)c2ncn(C3C=CC(CO)C(O)C3)c2n1 (stereo in doubt; form 1) |
| 1.05 (≈ 3.79 µM) | 1.5 (≈ 5.41 µM) |  |  | 5.8 (≈ 20.9 µM) | 1.2 (≈ 4.33 µM) |  | 1.28 (≈ 4.62 µM) | 0.003 (≈ 0.0108 µM) | 0.07 (≈ 0.252 µM) | 3 (≈ 10.8 µM) |  |  |  |  | Nc1nc(O)c2ncn(C3C=CC(CO)C(O)C3)c2n1 (stereo in doubt; form 2) |
|  |  |  |  |  |  |  |  | 0.01 (≈ 0.0444 µM) | 0.02 (≈ 0.0888 µM) | > 50 | 16 (≈ 71 µM) | 16 (≈ 71 µM) | 9.6 (≈ 42.6 µM) |  | Nc1nc2c(ncn2COCCO)c(=O)[nH]1 [ACYCLOVIR] |
|  |  |  |  |  |  |  |  | 0.001 (≈ 0.00392 µM) | 0.002 (≈ 0.00784 µM) | 45 (≈ 176 µM) | 0.77 (≈ 3.02 µM) |  | 0.48 (≈ 1.88 µM) | 0.6 (≈ 2.35 µM) | Nc1nc2c(ncn2COC(CO)CO)c(=O)[nH]1 [GANCICLOVIR] |
